Laboratory results as given in the supplement of paper PMC9013687.

What was measured:
[1] = system: Danio rerio embryo; assay: spontaneous tail coiling frequency (coils/min/embryo); higher = more spontaneous movement; conditions: 25 hpf
Method: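 Spontaneous tail coilings of zebrafish embryos exposed from 2 hpf were recorded at 24-25 hpf in 1-min videos and detected by a KNIME workflow from grey-value variance. Betamethasone was tested as the dipropionate, diflorasone as the diacetate.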

[2] = system: Danio rerio embryo; assay: EC50 Eye size_Decrease; conditions: exposure time: 2 dpf
Method: (§1)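 Zebrafish embryos (UFZ-OBI strain) were exposed from 2 hpf for 48 h (2 dpf) or 96 h (4 dpf) at 28 °C; spontaneous tail coiling was scored at 25 hpf. Morphological features from automated image analysis (FishInspector), heart rate and locomotor response were fitted with drc models. Quantal endpoints were dichotomised at 2.5 SD from controls and fitted with a log-logistic model; heart rate, pigmentation and STC were normalised to the replicate control mean. Betamethasone was tested as betamethasone dipropionate, diflorasone as diflorasone diacetate.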

[3] = system: Danio rerio embryo; assay: EC50 Eye-jaw distance_Decrease; conditions: exposure time: 4 dpf
Method: as §1

[4] = system: Danio rerio embryo; assay: EC10 Pericard size_Increase; higher = less potent; conditions: exposure time: 2 dpf
Method: as §1

[5] = system: Danio rerio embryo; assay: EC50 Head trunk angle_Decrease; conditions: exposure time: 2 dpf
Method: as §1

[6] = system: Danio rerio embryo; assay: EC10 Yolk sac size_Increase; higher = less potent
Method: as §1

[7] = system: Danio rerio embryo; assay: EC10 Eye-jaw distance_Decrease; higher = less potent; conditions: exposure time: 4 dpf
Method: as §1

[8] = system: Danio rerio embryo; assay: EC50 Yolk sac size_Increase
Method: as §1

[9] = system: Danio rerio embryo; assay: EC20 Yolk sac size_Increase; higher = less potent
Method: as §1

[10] = system: Danio rerio embryo; assay: EC20 Eye size_Decrease; higher = less potent; conditions: exposure time: 2 dpf
Method: as §1

[11] = system: Danio rerio embryo; assay: EC10 Body length_Decrease; higher = less potent
Method: as §1

[12] = system: Danio rerio embryo; assay: EC10 Head size_Decrease; higher = less potent; conditions: exposure time: 2 dpf
Method: as §1

[13] = system: Danio rerio embryo; assay: EC50 Curvature_Increase
Method: as §1

[14] = system: Danio rerio embryo; assay: EC10 Eye size_Decrease; higher = less potent; conditions: exposure time: 2 dpf
Method: as §1

[15] = system: Danio rerio embryo; assay: EC10 LMR ligth decrease; higher = less potent; conditions: exposure time: 4 dpf
Method: as §1

[16] = system: Danio rerio embryo; assay: EC10 Bladder size_Decrease; higher = less potent; conditions: exposure time: 4 dpf
Method: as §1

[17] = system: Danio rerio embryo; assay: EC50 Bladder size_Decrease; conditions: exposure time: 4 dpf
Method: as §1

[18] = system: Danio rerio embryo; assay: EC10 Curvature_Increase; higher = less potent
Method: as §1

[19] = system: Danio rerio embryo; assay: EC50 Head size_Decrease; conditions: exposure time: 2 dpf
Method: as §1

[20] = system: Danio rerio embryo; assay: EC10 Lack of SB; higher = less potent; conditions: exposure time: 4 dpf
Method: as §1

[21] = system: Danio rerio embryo; assay: EC20 Any effect; higher = less potent
Method: as §1

[22] = system: Danio rerio embryo; conditions: exposure time: 4 dpf
Method: as §1

[23] = system: Danio rerio embryo; assay: EC50 Body length_Decrease
Method: as §1

[24] = system: Danio rerio embryo; assay: EC20 Bladder size_Decrease; higher = less potent; conditions: exposure time: 4 dpf
Method: as §1

[25] = system: Danio rerio embryo
Method: as §1

[26] = system: Danio rerio embryo; assay: EC20 Curvature_Increase; higher = less potent
Method: as §1

[27] = system: Danio rerio embryo; assay: EC20 LMR dark; higher = less potent; conditions: exposure time: 4 dpf
Method: as §1

[28] = system: Danio rerio embryo; assay: EC10 LMR dark; higher = less potent; conditions: exposure time: 4 dpf
Method: as §1

[29] = system: Danio rerio embryo; assay: EC10 Any effect; higher = less potent
Method: as §1

[30] = system: Danio rerio embryo; assay: EC20 Pericard size_Increase; higher = less potent; conditions: exposure time: 2 dpf
Method: as §1

[31] = system: Danio rerio embryo; assay: EC20 Head trunk angle_Decrease; higher = less potent; conditions: exposure time: 2 dpf
Method: as §1

[32] = system: Danio rerio embryo; assay: EC20 LMR ligth decrease; higher = less potent; conditions: exposure time: 4 dpf
Method: as §1

[33] = system: Danio rerio embryo; assay: EC20 Eye-jaw distance_Decrease; higher = less potent; conditions: exposure time: 4 dpf
Method: as §1

[34] = system: Danio rerio embryo; assay: EC20 STC decrease; higher = less potent; conditions: exposure time: 25 h
Method: as §1

[35] = system: Danio rerio embryo; assay: EC10 STC decrease; higher = less potent; conditions: exposure time: 25 h
Method: as §1

[36] = system: Danio rerio embryo; assay: EC50 Pericard size_Increase; conditions: exposure time: 2 dpf
Method: as §1

[37] = system: Danio rerio embryo; assay: EC20 Lack of SB; higher = less potent; conditions: exposure time: 4 dpf
Method: as §1

[38] = system: Danio rerio embryo; conditions: exposure time: 4 dpf; remark: listed apart in the source
Method: as §1

[39] = system: Danio rerio embryo; assay: EC10 Head trunk angle_Decrease; higher = less potent; conditions: exposure time: 2 dpf
Method: as §1

[40] = system: Danio rerio embryo; assay: EC20 Head size_Decrease; higher = less potent; conditions: exposure time: 2 dpf
Method: as §1

[41] = system: Danio rerio embryo; assay: EC20 Body length_Decrease; higher = less potent
Method: as §1

CC(=O)Nc1ccc(O)cc1 [acetaminophen]
[1]
Conditions	spontaneous tail coiling frequency
230 µM	2.54
470 µM	1.5
940 µM	2.42
1875 µM	2.5
1876 µM	3.01
3750 µM	3.63
6250 µM	3.44
7500 µM	1.69
15000 µM	0

CC1=C(/C=C/C(C)=C/C=C/C(C)=C/C(=O)O)C(C)(C)CCC1 [all-trans retinoic acid]
Conditions	EC10 Bladder size Decrease [µM]	EC10 Eye size Decrease [µM]	EC10 Eye-jaw distance Decrease [µM]	EC10 Head size Decrease [µM]	EC10 Head trunk angle Decrease [nM]	EC10 LMR dark [µM]	EC10 LMR ligth decrease [nM]	EC10 Lack of SB [µM]	EC10 Pericard size Increase [µM]	EC10 STC decrease [nM]	EC20 Bladder size Decrease [µM]	EC20 Eye size Decrease [µM]	EC20 Eye-jaw distance Decrease [µM]	EC20 Head size Decrease [µM]	EC20 Head trunk angle Decrease [nM]	EC20 LMR dark [µM]	EC20 LMR ligth decrease [nM]	EC20 Lack of SB [µM]	EC20 Pericard size Increase [µM]	EC20 STC decrease [nM]	EC50 Bladder size Decrease [nM]	EC50 Eye size Decrease [nM]	EC50 Eye-jaw distance Decrease [nM]	EC50 Head size Decrease [nM]	EC50 Head trunk angle Decrease [nM]	EC50 LMR dark [nM]	EC50 Lack of SB [nM]	EC50 Pericard size Increase [nM]
[2]	–	–	–	–	–	–	–	–	–	–	–	–	–	–	–	–	–	–	–	–	–	38	–	–	–	–	–	–
[3]	–	–	–	–	–	–	–	–	–	–	–	–	–	–	–	–	–	–	–	–	–	–	33	–	–	–	–	–
[4]	–	–	–	–	–	–	–	–	0.035	–	–	–	–	–	–	–	–	–	–	–	–	–	–	–	–	–	–	–
[5]	–	–	–	–	–	–	–	–	–	–	–	–	–	–	–	–	–	–	–	–	–	–	–	–	11	–	–	–
[7]	–	–	0.025	–	–	–	–	–	–	–	–	–	–	–	–	–	–	–	–	–	–	–	–	–	–	–	–	–
[10]	–	–	–	–	–	–	–	–	–	–	–	0.036	–	–	–	–	–	–	–	–	–	–	–	–	–	–	–	–
[12]	–	–	–	0.019	–	–	–	–	–	–	–	–	–	–	–	–	–	–	–	–	–	–	–	–	–	–	–	–
[14]	–	0.034	–	–	–	–	–	–	–	–	–	–	–	–	–	–	–	–	–	–	–	–	–	–	–	–	–	–
[15]	–	–	–	–	–	–	1.7	–	–	–	–	–	–	–	–	–	–	–	–	–	–	–	–	–	–	–	–	–
[16]	0.011	–	–	–	–	–	–	–	–	–	–	–	–	–	–	–	–	–	–	–	–	–	–	–	–	–	–	–
[17]	–	–	–	–	–	–	–	–	–	–	–	–	–	–	–	–	–	–	–	–	17	–	–	–	–	–	–	–
[19]	–	–	–	–	–	–	–	–	–	–	–	–	–	–	–	–	–	–	–	–	–	–	–	42	–	–	–	–
[20]	–	–	–	–	–	–	–	0.012	–	–	–	–	–	–	–	–	–	–	–	–	–	–	–	–	–	–	–	–
[22]	–	–	–	–	–	–	–	–	–	–	–	–	–	–	–	–	–	–	–	–	–	–	–	–	–	–	20	–
[24]	–	–	–	–	–	–	–	–	–	–	0.012	–	–	–	–	–	–	–	–	–	–	–	–	–	–	–	–	–
[27]	–	–	–	–	–	–	–	–	–	–	–	–	–	–	–	0.022	–	–	–	–	–	–	–	–	–	–	–	–
[28]	–	–	–	–	–	0.016	–	–	–	–	–	–	–	–	–	–	–	–	–	–	–	–	–	–	–	–	–	–
[30]	–	–	–	–	–	–	–	–	–	–	–	–	–	–	–	–	–	–	0.036	–	–	–	–	–	–	–	–	–
[31]	–	–	–	–	–	–	–	–	–	–	–	–	–	–	4	–	–	–	–	–	–	–	–	–	–	–	–	–
[32]	–	–	–	–	–	–	–	–	–	–	–	–	–	–	–	–	4.75	–	–	–	–	–	–	–	–	–	–	–
[33]	–	–	–	–	–	–	–	–	–	–	–	–	0.028	–	–	–	–	–	–	–	–	–	–	–	–	–	–	–
[34]	–	–	–	–	–	–	–	–	–	–	–	–	–	–	–	–	–	–	–	5.6	–	–	–	–	–	–	–	–
[35]	–	–	–	–	–	–	–	–	–	1.22	–	–	–	–	–	–	–	–	–	–	–	–	–	–	–	–	–	–
[36]	–	–	–	–	–	–	–	–	–	–	–	–	–	–	–	–	–	–	–	–	–	–	–	–	–	–	–	39
[37]	–	–	–	–	–	–	–	–	–	–	–	–	–	–	–	–	–	0.015	–	–	–	–	–	–	–	–	–	–
[38]	–	–	–	–	–	–	–	–	–	–	–	–	–	–	–	–	–	–	–	–	–	–	–	–	–	36	–	–
[39]	–	–	–	–	2	–	–	–	–	–	–	–	–	–	–	–	–	–	–	–	–	–	–	–	–	–	–	–
[40]	–	–	–	–	–	–	–	–	–	–	–	–	–	0.026	–	–	–	–	–	–	–	–	–	–	–	–	–	–

Conditions	EC10 Any effect [nM]	EC10 Body length Decrease [µM]	EC10 Curvature Increase [nM]	EC10 Yolk sac size Increase [µM]	EC20 Any effect [nM]	EC20 Body length Decrease [µM]	EC20 Curvature Increase [nM]	EC20 Yolk sac size Increase [µM]	EC50 Any effect [nM]	EC50 Body length Decrease [nM]	EC50 Curvature Increase [nM]	EC50 LMR ligth decrease [nM]	EC50 STC decrease [nM]	EC50 Yolk sac size Increase [nM]	spontaneous tail coiling frequency
[1], 1 µM	–	–	–	–	–	–	–	–	–	–	–	–	–	–	3.33
[1], 6.25 µM	–	–	–	–	–	–	–	–	–	–	–	–	–	–	2.34
[1], 12.5 µM	–	–	–	–	–	–	–	–	–	–	–	–	–	–	2.17
[1], 25 µM	–	–	–	–	–	–	–	–	–	–	–	–	–	–	2.1
[1], 50 µM	–	–	–	–	–	–	–	–	–	–	–	–	–	–	1.74
[6], exposure time: 2 dpf	–	–	–	0.013	–	–	–	–	–	–	–	–	–	–	–
[6], exposure time: 4 dpf	–	–	–	0.034	–	–	–	–	–	–	–	–	–	–	–
[8], exposure time: 2 dpf	–	–	–	–	–	–	–	–	–	–	–	–	–	45	–
[8], exposure time: 4 dpf	–	–	–	–	–	–	–	–	–	–	–	–	–	39	–
[9], exposure time: 2 dpf	–	–	–	–	–	–	–	0.021	–	–	–	–	–	–	–
[9], exposure time: 4 dpf	–	–	–	–	–	–	–	0.036	–	–	–	–	–	–	–
[11], exposure time: 2 dpf	–	0.031	–	–	–	–	–	–	–	–	–	–	–	–	–
[11], exposure time: 4 dpf	–	0.023	–	–	–	–	–	–	–	–	–	–	–	–	–
[13], exposure time: 2 dpf	–	–	–	–	–	–	–	–	–	–	13	–	–	–	–
[13], exposure time: 4 dpf	–	–	–	–	–	–	–	–	–	–	10	–	–	–	–
[18], exposure time: 2 dpf	–	–	7	–	–	–	–	–	–	–	–	–	–	–	–
[18], exposure time: 4 dpf	–	–	6	–	–	–	–	–	–	–	–	–	–	–	–
[21], exposure time: 2 dpf	–	–	–	–	8	–	–	–	–	–	–	–	–	–	–
[21], exposure time: 4 dpf	–	–	–	–	7	–	–	–	–	–	–	–	–	–	–
[23], exposure time: 2 dpf	–	–	–	–	–	–	–	–	–	36	–	–	–	–	–
[23], exposure time: 4 dpf	–	–	–	–	–	–	–	–	–	48	–	–	–	–	–
[25], exposure time: 2 dpf	–	–	–	–	–	–	–	–	9	–	–	–	–	–	–
[25], exposure time: 4 dpf	–	–	–	–	–	–	–	–	11	–	–	27.4	–	–	–
[25], exposure time: 25 h	–	–	–	–	–	–	–	–	–	–	–	–	76	–	–
[26], exposure time: 2 dpf	–	–	–	–	–	–	9	–	–	–	–	–	–	–	–
[26], exposure time: 4 dpf	–	–	–	–	–	–	7	–	–	–	–	–	–	–	–
[29], exposure time: 2 dpf	8	–	–	–	–	–	–	–	–	–	–	–	–	–	–
[29], exposure time: 4 dpf	6	–	–	–	–	–	–	–	–	–	–	–	–	–	–
[41], exposure time: 2 dpf	–	–	–	–	–	0.033	–	–	–	–	–	–	–	–	–
[41], exposure time: 4 dpf	–	–	–	–	–	0.03	–	–	–	–	–	–	–	–	–
